# Data as given in patent USRE39866E1 (Telik, Inc., priority 1997, dated 2007).
# Where two headings read alike, the source gives them in different places.
# How the values were obtained:
# [1] = tested on: Glut4 transporter in 3T3-L1 adipocytes; assay: distribution of Glut4 transporter in 3T3-L1 adipocytes (immunofluorescence); assay type: cell-based; conditions: 15 minutes incubation
# Description: The results were visualized under a fluorescent microscope.
# [2] = biological target: T1, insulin receptor on human lymphocytic cell line IM-9 (Homo sapiens, UniProt P06213); assay: insulin receptor agonist activity on whole IM-9 cells (lysate ELISA); assay type: cell-based
# T1 construct: on whole cells, i.e., on the human lymphocytic cell line IM-9; endogenous in cells; host or cells: IM-9 human lymphocytic cell line
# T1 sequence (P06213 763-1382 limits assumed): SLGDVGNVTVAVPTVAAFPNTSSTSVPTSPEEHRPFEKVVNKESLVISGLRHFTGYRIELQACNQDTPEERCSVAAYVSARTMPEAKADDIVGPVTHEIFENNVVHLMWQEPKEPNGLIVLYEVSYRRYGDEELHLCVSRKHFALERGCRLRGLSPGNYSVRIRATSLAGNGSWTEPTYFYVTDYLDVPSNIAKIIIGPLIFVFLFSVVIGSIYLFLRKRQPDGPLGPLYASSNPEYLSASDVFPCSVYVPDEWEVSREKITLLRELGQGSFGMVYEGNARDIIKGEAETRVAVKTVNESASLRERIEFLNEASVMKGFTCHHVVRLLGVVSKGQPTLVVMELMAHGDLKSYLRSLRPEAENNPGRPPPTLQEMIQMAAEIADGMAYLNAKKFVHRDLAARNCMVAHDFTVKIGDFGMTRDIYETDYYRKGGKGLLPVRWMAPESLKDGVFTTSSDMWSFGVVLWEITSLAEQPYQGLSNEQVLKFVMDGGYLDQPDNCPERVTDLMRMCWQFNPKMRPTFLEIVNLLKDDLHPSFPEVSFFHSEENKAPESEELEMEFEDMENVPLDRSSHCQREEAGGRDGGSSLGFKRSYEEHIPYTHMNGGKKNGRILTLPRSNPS
# T1 sequence (P06213 28-758 partner limits assumed): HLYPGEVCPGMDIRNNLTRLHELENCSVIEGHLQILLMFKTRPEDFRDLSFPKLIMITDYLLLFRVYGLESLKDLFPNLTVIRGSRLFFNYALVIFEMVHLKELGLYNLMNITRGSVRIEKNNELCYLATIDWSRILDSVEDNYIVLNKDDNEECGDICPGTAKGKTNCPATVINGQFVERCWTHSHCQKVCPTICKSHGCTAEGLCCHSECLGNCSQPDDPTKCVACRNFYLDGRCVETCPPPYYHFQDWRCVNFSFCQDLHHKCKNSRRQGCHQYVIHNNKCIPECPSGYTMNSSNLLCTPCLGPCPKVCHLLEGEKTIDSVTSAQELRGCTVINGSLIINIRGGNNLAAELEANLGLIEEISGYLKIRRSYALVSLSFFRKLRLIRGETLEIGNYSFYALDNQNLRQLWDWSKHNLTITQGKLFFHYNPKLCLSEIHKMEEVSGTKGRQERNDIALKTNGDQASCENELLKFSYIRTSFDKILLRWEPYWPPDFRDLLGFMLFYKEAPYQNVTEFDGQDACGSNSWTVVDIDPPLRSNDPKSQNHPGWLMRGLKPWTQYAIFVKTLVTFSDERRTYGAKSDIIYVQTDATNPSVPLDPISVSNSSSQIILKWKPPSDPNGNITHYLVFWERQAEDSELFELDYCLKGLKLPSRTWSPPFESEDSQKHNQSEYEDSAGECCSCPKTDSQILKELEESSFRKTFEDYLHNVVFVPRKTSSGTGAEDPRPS
# Protocol: The cells were then lysed in 0.5% Tween 20 and lysates analyzed in an ELISA assay as described in paragraph A, without the steps of incubation with ATP.
# [3] = biological target: T2, recombinantly produced β chain lacking the insulin-binding domain (Homo sapiens, UniProt P06213); assay: phosphorylation of substrate peptide Raytide by recombinant beta chain kinase; assay type: biochemical; conditions: 25 μM
# T2 construct: purchased Stratagene, Inc
# T2 sequence (P06213 763-1382 limits assumed): as the sequence (P06213 763-1382 limits assumed) above
# Protocol: The ability of this kinase to phosphorylate a substrate peptide (Raytide from Oncogene Sciences) is stimulated by TER12 at 25 μM.
# 3T3-L1 fibroblast cells [4] = assay: differentiation of 3T3-L1 fibroblasts to adipocyte-like morphology (Oil Red O uptake); assay type: cell-based
# Description: (§1) Insulin also enhances glucose transport in this cell line.
# 3T3-L1 fibroblast cells [5] = assay: glucose transport in 3T3-L1 cell line; assay type: cell-based
# Description: as §1
# human insulin receptor = biological target: T3, human insulin receptor (Homo sapiens, UniProt P06213); assay: phosphorylation of artificial substrate poly(Glu4Tyr) by activated receptor, labeled ATP; assay type: biochemical
# T3 construct: partially purified from placental extracts or from cell line IM-9; from tissue; host or cells: human placental extracts or cell line IM-9
# T3 sequence (P06213 763-1382 limits assumed): as above
# T3 sequence (P06213 28-758 partner limits assumed): as the sequence (P06213 28-758 partner limits assumed) above
# [6] = biological target: T4, human insulin receptors (hIR) (Homo sapiens, UniProt P06213); assay: insulin receptor kinase autophosphorylation assay (captured hIR, anti-phosphotyrosine ELISA); assay type: biochemical; conditions: for agonist activity in IR kinase assay (in words): samples as screened; for activity in IR kinase assay after synthesis or purification: synthesized or extensively purified / HPLC-purified material
# T4 construct: partially purified from placental extracts or from cell line IM-9; from tissue; host or cells: human placental extracts or cell line IM-9
# T4 sequence (P06213 763-1382 limits assumed): as the sequence (P06213 763-1382 limits assumed) above
# T4 sequence (P06213 28-758 partner limits assumed): as the sequence (P06213 28-758 partner limits assumed) above
# Protocol: This assay is a modified form of that described in Hagino, H. et al. Diabetes (1994) 43:274-280. […] The partially purified hIRs were captured into microplate wells by incubating them for 90 minutes with wells coated with a monoclonal antibody to hIR. […] After 60 minutes, the wells were washed, and then treated for 60 minutes with biotinylated antibody directed against phosphotyrosine (PY-20) and unbound materials again washed away. The wells were then incubated with a conventional streptavidin peroxidase system for 30 minutes to assess the level of phosphorylated tyrosine.
"increase of basal insulin receptor kinase activity ([2]; 5 minutes exposure, sample containing 20 μM TER12)","increase of insulin stimulated insulin receptor kinase activity ([2]; 5 minutes exposure, sample containing 20 μM TER12, with insulin)",stimulation of kinase phosphorylation of Raytide [3],percent of maximal phosphorylation (human insulin receptor; 0.5 nM insulin plus 20 μM TER12 sample),percent of maximal phosphorylation (human insulin receptor; 5 nM insulin plus TER12 sample),"percent of maximal insulin-stimulated activity (human insulin receptor; about 20 μM sample calculated as TER12, no insulin)",increase in phosphorylation on addition to insulin ([6]; 60 μM sample added to hIR contacted with 0.3 nM insulin),"stimulation of autophosphorylation ([6]; absence of insulin, 20 μM of sample composed mainly of TER12)","EC50 ([6]; read-out: EC50 for enhancing insulin stimulation, sample calculated as TER12)",agonist activity in IR kinase assay (in words) [6],activity in IR kinase assay after synthesis or purification [6],enhancement of insulin-stimulated autophosphorylation of insulin receptor ([2]; intact IM-9 cells),activity in IR kinase assay of insoluble compound ([6]; insoluble compound after washing sample with aqueous sodium carbonate),EC50 ([6]; read-out: EC50 in in vitro autophosphorylation assay),Molecule,redistribution of Glut4 [1],effect on insulin-induced differentiation (3T3-L1 fibroblast cells [4]; 20 μM with insulin),effect on differentiation (3T3-L1 fibroblast cells [4]; sample alone),stimulation of glucose transport (3T3-L1 fibroblast cells [5]; sample alone),effect on insulin-stimulated glucose transport (3T3-L1 fibroblast cells [5]; with insulin)
,,,,,,,,,,,,,,insulin,dramatic redistribution of Glut4 to the membrane surfaces,,,,
two-fold,five-fold,stimulated,120%,140%,75%,approximately three-fold,over five-fold,~20 µM,apparent agonist activity,active,,,,"O=C(Nc1cc(S(=O)(=O)[O-])cc2cc(S(=O)(=O)[O-])c(N=Nc3cc(Nc4nc(Cl)nc(Nc5ccc(S(=O)(=O)[O-])cc5)n4)ccc3S(=O)(=O)[O-])c(O)c12)c1ccccc1.[Na+].[Na+].[Na+].[Na+] [TER12, Cibacron Brilliant Red 3BA]",,enhances the differentiating effect of insulin,does not appear to effect differentiation,failed to stimulate glucose transport significantly,enhanced the ability of insulin to do so
,,,,,,,,,agonist activity,retained its activity,enhanced the activity of insulin,less active,8 µM,"COc1ccccc1NC(=O)C(N=Nc1ccc(-c2nc3ccc(C)c(S(=O)(=O)[O-])c3s2)cc1S(=O)(=O)[O-])C(C)=O.[Na+].[Na+] (stereo not drawn) [TER3938, Direct Yellow 27]",,,,,
